44 compounds from patent publication US20080090805A1, “CB-1 MODULATING COMPOUNDS AND THEIR USE” (ACADIA PHARMACEUTICALS INC., priority 2005, published 2008) can be followed below.

The target in the assay is native CB1 receptors (Rattus norvegicus, UniProt P20272). Kind of assay: CB1 receptor rat binding assay ([3H]SR141716A, rat brain membranes). The following applies: rat brain membranes, [3H]SR141716A; for Ki: read-out: Binding rat pKi (converted).
native CB1 receptors, sequence (P20272 whole entry): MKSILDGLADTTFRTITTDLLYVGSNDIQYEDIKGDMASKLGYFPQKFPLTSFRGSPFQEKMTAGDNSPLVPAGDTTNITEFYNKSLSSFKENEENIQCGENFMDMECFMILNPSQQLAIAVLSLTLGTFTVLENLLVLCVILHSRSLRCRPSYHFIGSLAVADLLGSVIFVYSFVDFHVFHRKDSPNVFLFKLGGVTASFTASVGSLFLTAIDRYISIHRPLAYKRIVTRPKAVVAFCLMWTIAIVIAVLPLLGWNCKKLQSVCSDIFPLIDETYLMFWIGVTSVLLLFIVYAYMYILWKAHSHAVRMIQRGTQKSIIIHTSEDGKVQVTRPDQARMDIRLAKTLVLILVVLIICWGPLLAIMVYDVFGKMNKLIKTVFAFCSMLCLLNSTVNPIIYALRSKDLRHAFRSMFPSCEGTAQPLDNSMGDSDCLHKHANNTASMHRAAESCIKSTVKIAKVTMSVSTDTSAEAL

Turning to `O=C(NN1CCCCC1)c1ccc2c(c1)N=C(c1ccc(Cl)cc1)c1ccccc1S2` [drawing 1424], the “Binding rat Inh %” value is listed as 60% and the Ki was 6.31 nM.
Regarding `Cc1cccc(C2=Nc3cc(C(=O)NC4CCC(F)(F)CC4)ccc3Sc3ccccc32)n1` [drawing 1425], the “Binding rat Inh %” value worked out at 90% and the Ki is 6.31 nM.
For the compound `CCCCNC(=O)c1ccc2c(c1)N=C(c1ccc(Cl)s1)c1cc(Cl)ccc1S2` [drawing 1426], the “Binding rat Inh %” value is given as 85% and the Ki is 6.31 nM.
With `CCCC1=Nc2cc(C(=O)NCc3ccccc3Cl)ccc2Sc2ccccc21` [drawing 1427], the Ki was 39.8 nM.
Still for that read-out and setting: then `O=C(NCc1cccc(Cl)c1)c1ccc2c(c1)N=C(N1CCCCC1)c1ccccc1S2(=O)=O` [drawing 1428], with 50.1 nM.
With `CC(C)NC(=O)c1ccc2c(c1)N=C(c1ccc(F)cc1)c1ccccc1S2` [drawing 1429], the “Binding rat Inh %” value is 80% and the Ki was 50.1 nM.
Consider `Cc1csc(CNC(=O)c2ccc3c(c2)N=C(c2ccc(F)cc2)c2ccccc2S3)c1` [drawing 1430], for which the “Binding rat Inh %” value was 81% and the Ki was 50.1 nM.
For the compound `CC(NC(=O)c1ccc2c(c1)N=C(C1CCCCC1)c1ccccc1S2)c1ccccc1` (stereo not drawn) [drawing 1431], the Ki is 6.31 nM.
In the case of `COc1ccc(C2=Nc3cc(C(=O)NN4[C@H](C)CCC[C@@H]4C)ccc3Sc3ccccc32)cc1` [drawing 1432], the “Binding rat Inh %” value is listed as 88% and the Ki is 6.31 nM.
The matching figures for `O=C(NN1CCCCCC1)c1ccc2c(c1)N=C(c1ccc(F)cc1)c1ccccc1S2` [drawing 1433]: 112% and 6.31 nM.
With `O=C(NCCCc1ccccc1)c1ccc2c(c1)N=C(c1ccc(Cl)cc1)c1ccccc1S2` [drawing 1434], the Ki was 6.31 nM.
Consider `O=C(NCc1ccco1)c1ccc2c(c1)N=C(c1ccccc1F)c1ccccc1S2` [drawing 1435], for which the “Binding rat Inh %” value is recorded as 83% and the Ki is 50.1 nM.
As for `O=C(NC1CCCC1)c1ccc2c(c1)N=C(c1ccc(Cl)cc1)c1ccccc1S2` [drawing 1436], the “Binding rat Inh %” value worked out at 89% and the Ki is 50.1 nM.
As for `CCCC1=Nc2cc(C(=O)NC3CCC(C)CC3)ccc2Sc2ccccc21` (stereo not drawn) [drawing 1437], the Ki is 50.1 nM.
Turning to `COc1ccc(C2=Nc3cc(C(=O)NCc4cccnc4)ccc3Sc3ccccc32)cc1` [drawing 1438], the “Binding rat Inh %” value was 60% and the Ki was 50.1 nM.
For `CCN(CCNC(=O)c1ccc2c(c1)N=C(N1CCCCC1)c1ccccc1S2)c1ccccc1` [drawing 1439], the Ki is 6.31 nM.
For the compound `O=C(NCCc1ccc(Cl)cc1)c1ccc2c(c1)N=C(c1ccccc1)c1ccccc1S2` [drawing 1440], the Ki was 7.94 nM.
Turning to `Cc1ccc(CNC(=O)c2ccc3c(c2)N=C(c2ccc(Cl)cc2F)c2ccccc2S3)o1` [drawing 1441], the “Binding rat Inh %” value amounted to 90% and the Ki is 7.94 nM.
In the case of `O=C(NCCC(F)(F)F)c1ccc2c(c1)N=C(c1ccsc1)c1ccccc1S2` [drawing 1442], the “Binding rat Inh %” value is 88% and the Ki was 7.94 nM.
As to `O=C(NCc1ccncc1)c1ccc2c(c1)N=C(c1ccc(F)cc1)c1ccccc1S2` [drawing 1443], the “Binding rat Inh %” value came to 68% and the Ki was 50.1 nM.
`O=C(NCCc1ccccc1)c1ccc2c(c1)N=C(c1ccccc1F)c1ccccc1S2` [drawing 1444]: the Ki was 50.1 nM.
As to `CC(C)NC(=O)c1ccc2c(c1)N=C(c1ccc(Cl)s1)c1ccccc1S2` [drawing 1445], the “Binding rat Inh %” value is recorded as 85% and the Ki was 50.1 nM.
`CCOCCNC(=O)c1ccc2c(c1)N=C(c1ccc(F)cc1)c1ccccc1S2` [drawing 1446]: the “Binding rat Inh %” value amounted to 63% and the Ki was 50.1 nM.
Take `CCCCNC(=O)c1ccc2c(c1)N=C(c1cccc(Cl)c1)c1cc(F)ccc1S2` [drawing 1447]: the “Binding rat Inh %” value is 108% and the Ki was 7.94 nM.
As for `O=C(NCc1ccco1)c1ccc2c(c1)N=C(c1cccc(Cl)c1)c1ccccc1S2` [drawing 1448], the “Binding rat Inh %” value was determined as 85% and the Ki was 7.94 nM.
On to `O=C(NCc1cccc(Cl)c1)c1ccc2c(c1)N=C(c1ccccc1)c1ccccc1S2` [drawing 1449], for which the Ki is 7.94 nM.
On to `O=C(NCCCc1ccccc1)c1ccc2c(c1)N=C(c1ccccc1)c1ccccc1S2` [drawing 1450], for which the Ki was 7.94 nM.
Turning to `O=C(Cc1ccccc1)NNC(=O)c1ccc2c(c1)N=C(c1ccc(Cl)cc1)c1ccccc1S2` [drawing 1451], the “Binding rat Inh %” value is 72% and the Ki is 50.1 nM.
As for `O=C(NCCc1ccccn1)c1ccc2c(c1)N=C(c1ccc(Cl)c(Cl)c1)c1ccccc1S2` [drawing 1452], the “Binding rat Inh %” value is recorded as 114% and the Ki is 50.1 nM.
As to `O=C(NCc1ccncc1)c1ccc2c(c1)N=C(c1ccc(Br)cc1)c1ccccc1S2` [drawing 1453], the “Binding rat Inh %” value is reported as 80% and the Ki was 50.1 nM.
The matching figures for `NS(=O)(=O)c1ccc(CNC(=O)c2ccc3c(c2)N=C(c2ccc(F)cc2)c2ccccc2S3)cc1` [drawing 1454]: 72% and 50.1 nM.
Consider `CC(CNC(=O)c1ccc2c(c1)N=C(N1CCCCC1)c1ccccc1S2)c1ccccc1` (stereo not drawn) [drawing 1455], for which the Ki is 7.94 nM.
On to `O=C(NCc1cccc(Cl)c1)c1ccc2c(c1)N=C(c1ccc(Cl)cc1)c1cc(F)ccc1S2` [drawing 1456], for which the Ki is 7.94 nM.
Still for that read-out and setting: then `O=C(NCCc1cccc(Cl)c1)c1ccc2c(c1)N=C(c1ccccc1)c1ccccc1S2` [drawing 1457], with 7.94 nM.
Consider `COc1cccc(C2=Nc3cc(C(=O)NCc4ccc(C)o4)ccc3Sc3ccccc32)n1` [drawing 1458], for which the “Binding rat Inh %” value amounted to 90% and the Ki is 7.94 nM.
Consider `O=C(NCCc1cccc(Cl)c1)c1ccc2c(c1)N=C(c1ccccc1F)c1ccccc1S2` [drawing 1459], for which the Ki is 50.1 nM.
For `O=C(NCCc1ccccn1)c1ccc2c(c1)N=C(c1ccc(Br)cc1)c1ccccc1S2` [drawing 1460], the “Binding rat Inh %” value worked out at 61% and the Ki is 50.1 nM.
With `COCCNC(=O)c1ccc2c(c1)N=C(c1cccc(Cl)c1)c1ccccc1S2` [drawing 1461], the “Binding rat Inh %” value is on record as 80% and the Ki was 50.1 nM.
With `O=C(NN1CCCCC1)c1ccc2c(c1)N=C(c1ccccc1)c1ccccc1S2` [drawing 1462], the Ki was 50.1 nM.
`O=C(NN1CCCCCC1)c1ccc2c(c1)N=C(c1ccc(Cl)cc1)c1ccccc1S2` [drawing 1463]: the “Binding rat Inh %” value is given as 82% and the Ki is 7.94 nM.
As to `CCCCNC(=O)c1ccc2c(c1)N=C(c1ccc(Cl)cc1)c1cc(Cl)ccc1S2` [drawing 1464], the “Binding rat Inh %” value was 78% and the Ki was 7.94 nM.
Take `CC(NC(=O)c1ccc2c(c1)N=C(c1cccc(Cl)c1)c1ccccc1S2)c1ccccc1` (stereo not drawn) [drawing 1465]: the Ki is 7.94 nM.
With `O=C(NCCc1cccnc1)c1ccc2c(c1)N=C(c1ccc(Cl)s1)c1ccccc1S2` [drawing 1466], the “Binding rat Inh %” value is 98% and the Ki was 7.94 nM.
On to `O=C(NNCC(F)(F)F)c1ccc2c(c1)N=C(c1cccc(Cl)c1)c1ccccc1S2` [drawing 1467], for which the “Binding rat Inh %” value was 97% and the Ki is 50.1 nM.
